The results in this text go back to US20110189194A1, “USE OF CD95 INHIBITORS FOR THE TREATMENT OF INFLAMMATORY DISORDERS” (Deutsches Krebsforschungszentrum Stiftung des offentlichen …, priority 2008, published 2011).

The subject of assay [1] is bone marrow derived neutrophils. Nature of the assay: Two chamber in vitro migration assay, neutrophils. It counts as cell-based, mouse. On the procedure: (§1) Migration of bone marrow derived neutrophils or macrophages was assessed in vitro in a two chamber migration assay. Transwell inserts [3 μm (BD #353096) or 8 μm (BD #353097) pore size for neutrophils or macrophages respectively] were coated with matrigel (50 μg/ml; BD #354234). 5×10^5 neutrophils or macrophages were plated in 500 μl medium onto the upper chamber. Cells were left untreated or treated with CD95L-T4 by adding 10, 20 and 40 ng/ml to the upper chamber. The number of migrated cells was counted 3 hours for neutrophils and 24 hours for macrophages after treatment.
The role of metalloproteinases on neutrophil recruitment was investigated by using selective inhibitors of MMP-2/9. Neutrophils were pre-incubated with MMP-2/9 inhibitor (50 μM; Calbiochem #444251) 30 minutes prior to CD95L-T4 treatment and migrating cells were calculated.
Migration of bone marrow derived neutrophils or macrophages was assessed in vitro in a two chamber migration assay. Transwell inserts [3 μm (BD #353096) or 8 μm (BD #353097) pore size for neutrophils or macrophages, respectively] were coated with matrigel (50 μg/ml; BD #354234). 5×10^5 neutrophils, 1×10^6 dHL60 or 2×10^5 macrophages were plated in 500 μl medium onto the upper chamber. Cells were left untreated or treated with CD95L-T4 (engineered Mus musculus CD95L (Kleber et al., 2008)) by adding 10, 20 and 40 ng/ml to the upper chamber. The number of migrated cells was counted 3 h for neutrophils, 4 h for dHL-60 and 24 h for macrophages after treatment by using a hemocytometer. […] Data of the migration assays are representative of at least 4 independent experiments with 6 technical replicates per condition.
(§2) The role of metalloproteinases on neutrophil and macrophage recruitment was investigated by using selective inhibitors of MMP-2/9. Neutrophils, dHL-60 and macrophages were pre-incubated with MMP-2/9 inhibitors (50 μM; Calbiochem #444251) 30 minutes prior to CD95L-T4 treatment and the number of migrated cells was counted at the times indicated previously.

Another assay relates to dHL-60 cells. Nature of the assay: Two chamber in vitro migration assay, dHL-60. It counts as cell-based, human. As to the method: The human myeloid HL-60 cell line (ACC 3) was kindly provided by Dr. Lucie Darner. PMN-like differentiation of HL-60 cells and the electroporation protocol was described previously. Briefly, HL-60 cells were allowed to differentiate in presence of 1.3% DMSO for 6 days before used for protein analysis. Electroporation of dHL-60 cells was performed at day 4. For electroporation, a 400 μL aliquot of dHL-60 (1×10^7 cells/mL) in RPMI was transferred to a Gene Pulser cuvette with an 0.4-cm electrode (Bio-Rad, Hercules, Calif.) and mixed with […] Syk siRNA ON-TARGETplus SMARTpool siRNA or non-targeting SMARTpool siRNA. Cells were incubated for 10 minutes at room temperature (RT) and subjected to an electroporation pulse of 310 V and 1175 μFF (Gene Pulser Biorad, Munich, Germany). 48 h to 72 h after electroporation, Syk knockdown was assessed by Western Blot. At the same time, cells were stimulated with CD95L-T4 and analysed after 4 h for migration.
Migration of bone marrow derived neutrophils or macrophages was assessed in vitro in a two chamber migration assay. Transwell inserts [3 μm (BD #353096) or 8 μm (BD #353097) pore size for neutrophils or macrophages, respectively] were coated with matrigel (50 μg/ml; BD #354234). 5×10^5 neutrophils, 1×10^6 dHL60 or 2×10^5 macrophages were plated in 500 μl medium onto the upper chamber. Cells were left untreated or treated with CD95L-T4 (engineered Mus musculus CD95L (Kleber et al., 2008)) by adding 10, 20 and 40 ng/ml to the upper chamber. The number of migrated cells was counted 3 h for neutrophils, 4 h for dHL-60 and 24 h for macrophages after treatment by using a hemocytometer. […]
as §2

Assay [2] relates to bone marrow derived macrophages. The experiment in a line: Two chamber in vitro migration assay, macrophages. The class given is cell-based, mouse. As to the method: as §1
Transfection of primary macrophages was performed at day 8 in culture with lipofectamine (Invitrogen #11668019) according to the manufacturer's protocol. Briefly, macrophages were transfected with mouse […] Syk siRNA ON-TARGETplus SMARTpool siRNA or a non-targeting SMARTpool siRNA using Lipofectamine 2000. 48 h later Syk knockdown was assessed by Western Blot. At the same time, cells were stimulated with CD95L-T4 and analysed after 24 h for migration, MMP-activity or Western blots.
Migration of bone marrow derived neutrophils or macrophages was assessed in vitro in a two chamber migration assay. […] The number of migrated cells was counted 3 h for neutrophils, 4 h for dHL-60 and 24 h for macrophages after treatment by using a hemocytometer. […]

In assay [3] the test system is Syk. Nature of the assay: Western blot, CD95L-induced phosphorylation of Syk in dHL-60. It counts as cell-based, human. The conditions noted are these: CD95L 20 and 40 ng/ml. As to the method: (§3) Protein extraction and immunoblotting was performed as previously described. Membranes were probed with the following antibodies: phosphorylated AKT (p-Ser473-AKT, 1:1000, Cell Signaling #9271), total AKT (t-AKT, 1:1000, Cell Signaling #9272), phosphorylated Src (p-Src Tyr 416, 1:1000, Cell Signaling #2101), total Src (1:1000, Cell Signaling #2108), phosphorylated Syk (pSyk Tyr 319/352, 1:1000, Cell Signaling #2701), total Syk (1:1000, Cell Signaling #2712).

Assay [4] deals with Syk. Nature of the assay: Western blot, CD95L-induced phosphorylation of Syk in primary macrophages. It counts as cell-based, mouse. On the procedure: as §3
In general terms: In western blotting, separated proteins are transferred to a membrane and probed.

Entries after “also recorded” stand apart in the source; their conditions may differ.

Take `O=C(O)[C@@H](Cc1ccccc1)NS(=O)(=O)c1ccc(-c2ccccc2)cc1` [MMP-2/9 inhibitor]: in assay [1], the “CD95L-T4 induced migration of neutrophils (in words)” value was “blocked”. The “migration after MMP-2/9 blockade, neutrophils, cell count ± SEM” value in assay [1] (CD95L-T4 10 ng/ml, with or without inhibitor 50 μM) is listed as 10 ng/ml: 724.69 ± 150.01; in assay [1] (Control (no CD95L-T4), inhibitor 50 μM, 30 min pre-incubation), “Control: 713.00 ± 161.89”. Moreover, the “CD95L-T4 induced migration of dHL-60 (in words)” value with dHL-60 cells is recorded as “blocked”. Further, the “migration after MMP-2/9 blockade, dHL-60, cell count ± SEM” value is recorded as 40 ng/ml: 683.09 ± 170.89 with dHL-60 cells (CD95L-T4 40 ng/ml, with or without inhibitor 50 μM) and “Control: 658.09 ± 137.65” with dHL-60 cells (Control (no CD95L-T4), inhibitor 50 μM). Besides, in assay [2], the “CD95L-T4 induced migration of macrophages (in words)” value is on record as “blocked”. For the same compound, the “migration after MMP-2/9 blockade, macrophages, cell count ± SEM” value in assay [2] (CD95L-T4 20 ng/ml, with or without inhibitor 50 μM) was 323.80 ± 100.20.
With `CC(C)(C)n1nc(-c2ccc(Cl)cc2)c2c(N)ncnc21` [PP2], the “CD95L-induced phosphorylation of Syk in dHL-60” value in the assay with Syk [3] is “blocked; also recorded: inhibited”. Moreover, the “CD95L-induced phosphorylation of Syk in primary macrophages” value in the assay on Syk [4] was “blocked; also recorded: inhibited”.
